Results reported in US11896589B2, “Diazinyl amino acridines and medical uses thereof” (MyCural Therapeutics AB, priority 2018, dated 2024).
Where two headings read alike, the source gives them in different places.

What was measured:
[1] = test system: MYCN-amplified neuroblastoma cells (SK-N-DZ, Kelly, IMR-32); experiment: Assay 5A neuroblastoma cell growth (WST-1), MYCN-amplified; format: cell-based; details: Homo sapiens, second run
Method: (§1) FIG. 6: A-B) Neuroblastoma cell lines with (SK-N-DZ, Kelly and IMR-32) or without (SK-N-F1, SK-N-RA and SK-N-AS) MYCN-amplification were exposed to different concentrations of Example 1, Example 2 and control compound, respectively, for 48 hours. Cell growth and viability was estimated by measuring metabolic activity. C) Growth of TGR-1 (wt), HO15.19 (MYC knockout) and HOmyc3 (MYC reconstituted HO15.19) Rat1 fibroblasts, as measured by the WST-1 assay after treatment with Example 1. Data are shown as mean±standard deviation of 3-5 biological experiments, each with 3 technical repeats.
Assay 5A: Neuroblastoma Cell Growth
Neuroblastoma cell lines with (SK-N-DZ, Kelly and IMR-32) or without (SK-N-F1, SK-N-RA and SK-N-AS) MYCN-amplification were exposed to different concentrations of example compounds for 48 hours. Cell growth and viability was estimated by measuring metabolic activity by incubating cells in triplicates with WST-1 (Roche) in medium at 37° C. and 5% CO2 for 2 hours after which absorbance was measured with an Omega Fluostar (BMG Labtech) in a 96 well plate format.

[2] = test system: Tgr and H0Myc3 Rat1 fibroblast cells; experiment: Assay 5B Tgr cell growth (WST-1), MYC expressing; format: cell-based, rat; details: 48 hours
Method: as §1
Assay 5B: Tgr Cell Growth
Tgr cells were treated at 37° C. and 5% CO2 at 48 hours with Example and Example 2. H015.19 is a MYC null rat cell line derived from Tgr1 (parental cells), while H0Myc3 cells were generated from the MYC null cells by reconstitution of a MYC gene(Mateyak, M. K., Obaya, A. J., Adachi, S. & Sedivy, J. M. Phenotypes of c-Myc-deficient rat fibroblasts isolated by targeted homologous recombination. Cell Growth Differ 8, 1039-1048 (1997)).

MAX bHLHZip = molecular target: T1, MAX bHLHZip (Homo sapiens, UniProt P61244); experiment: Assay 2A MST assay with MAX; format: binding; details: compound fixed at 3 μM, MAX titrated, highest concentration tested 15 μM
T1 construct: Recombinant MYC bHLHZip and MAX bHLHZip proteins were titrated
Method: FIG. 2: A) MST assay of Example 1 effect on MYC and MAX, respectively. Recombinant MYC bHLHZip and MAX bHLHZip proteins were titrated, respectively, in a fixed concentration (3 μM) of Example 1. Changes in fluorescence were measured and normalized to control (buffer). Data are shown as mean±standard deviation of 6-8 biological repeats. B) MST assay of MYC (reverse MST). A fixed concentration of 200 nM labeled MYC was mixed with different concentrations of Example 1 as indicated. Data are shown as mean±standard deviation of 5 biological repeats. C) MST assay of Example 2 effect on MYC. D) MST assay of MYC with a control compound (non-binder).
The MYC MST assay was performed as described above (Biological example 1—Assay 1A), except that the fluorescent molecule was either protein or Example 1. The example compound was kept at a fix concentration of 3 μM in PBS supplemented with 0.05% Tween-20, while MYCbHLHZip or MAX was titrated. The migration of example compound changed at MYC protein concentrations above 1 μM, but was unaffected with MAX up to highest concentration tested (15 μM) (FIG. 2A). In a reverse experiment, Example 1 was titrated in a fixed protein concentration in PBS supplemented with 0.05% Tween-20 and 1% DMSO as described above after labelling primary amines of the protein using the Protein labelling kit GREEN-NHS (NanoTemper) according to manufacturer's protocol. […]

MYCbHLHZip = molecular target: T2, MYCbHLHZip (Homo sapiens, UniProt P01106); experiment: Assay 2B MYC SPR assay; format: binding
T2 construct: An amino coupling procedure was used to immobilize MYCbHLHZip protein on a CM5 sensor chip
Method: FIG. 3: A) SPR assay to determine affinity of Example 1 to MYC. MYC bHLHZip protein was immobilized by aminocoupling on a CM5 sensor chip. Example 1 was injected at various concentrations in a kinetic experiment. The reference surface was subtracted from the analyte surface to generate a sensorgram. […] B) Four MYC equilibrium binding experiments with Example 1 summarized in an equilibrium binding plot. […] Equilibrium binding experiments of MYC with Example 2 and control compound (non-binder) were plotted as well. Assay 2B. MYC SPR Assay To analyze the direct binding of compounds to MYC, the direct binding of compounds to MYC was detected by surface plasmon resonance (SPR) as described above (Biological example 1—Assay 1B). An amino coupling procedure was used to immobilize MYCbHLHZip protein on a CM5 sensor chip (GE Healthcare) resulting in immobilization levels of approximately 800 respectively 1000 RU. The compounds were injected at different concentrations, one at a time, over the surface for 50-80 seconds with a flow rate of 30 μl/min. Afterwards the compounds were allowed to dissociate for 240 seconds in running buffer (137 mM NaCl, 2.7 mM KCl, 10 mM Na2HPO4, 1.8 mM KH2PO4, 0.005% Tween-20, 1% DMSO, pH 7.4). To remove all remaining analyte the surface was regenerated with 2M Urea for 30 seconds and thereafter 1M NaCl, 2.7 mM KCl, 10 mM Na2HPO4, 1.8 mM KH2PO4, 1% DMSO, pH 7.4 for 30 seconds. Sensorgrams were generated by subtraction of the reference (blank immobilized) surface. Binding responses were related to respective compounds' Rmax. Rmax is the maximum response of a compound when it binds with a 1:1 stochiometry to the protein; Rmax=(MW analyte/MW ligand)×immobilized ligand level on the chip (RU) x stoichiometry (1:1). Kinetic experiments were carried out where recombinant MYC bHLHZip was immobilized on the chip and different concentrations of Example 1 were injected as above. […] Example 2-6 were analyzed for their MYC binding properties by equilibrium binding experiments as described for example 1.

T2 sequence (P01106 368-449 limits assumed): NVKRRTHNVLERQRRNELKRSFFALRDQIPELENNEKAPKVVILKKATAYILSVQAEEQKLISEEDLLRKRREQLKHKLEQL
T1 sequence (P61244 22-102): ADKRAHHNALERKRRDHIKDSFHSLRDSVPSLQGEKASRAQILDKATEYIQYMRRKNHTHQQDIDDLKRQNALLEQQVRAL

- GI50 [1]: 2500 nM
- Effect on thermophoresis (MAX protein concentration) (MAX bHLHZip): > 15 µM
- Kd (MYCbHLHZip; 1:1 Langmuir model, read-out: KD (average of four kinetic experiments)): 1600 ± 500 nM
- Kd (MYCbHLHZip; Langmuir 1:1, constant Rmax 43 RU, read-out: KD (one representative kinetic experiment)): 2500 nM
- Binding relative to Rmax (MYCbHLHZip; equilibrium binding experiments): 1.6 Response Units
- kon (MYCbHLHZip; representative kinetic experiment, read-out: association rate ka): 9290 M⁻¹ s⁻¹
- koff (MYCbHLHZip; representative kinetic experiment, read-out: dissociation rate kd): 0.0229 s⁻¹
SMILES: CCOc1ccc2nc3cc(/N=N/c4ccc(N)nc4N)ccc3c(N)c2c1 [Example 1, 3-((9-amino-7-ethoxyacridin-3-yl)diazenyl)pyridine-2,6-diamine sulphate hydrate]
- growth of wt and reconstituted cells [2]: strongly inhibited
- GI50 ([2]; Rattus norvegicus, Fibroblast, first run): 4000 nM
